In patent US8754100B2, “Nitrogen-containing fused heterocyclic compounds and their use as beta amyloid production inhibitors” (EISAI R&D Management Co., Ltd., priority 2009, dated 2014):

What follows are molecules tested on Aβ42 production in rat primary neuronal culture (assay: Quantification of Aβ peptide (Aβ42 ELISA) in culture of neurons from rat fetus brain). Details: Rattus norvegicus, Neuron, 72 h; primary neuronal culture from cerebral cortex of embryonic day 18 Wistar rats; cultured three days after addition of compound; Aβ42 in medium by ELISA; read-out: Aβ42 Production reducing action IC50.
Assay type: cell-based
Method: Quantification of Aβ Peptide in Culture of Neurons from Rat Fetus Brain
(1) Rat Primary Neuronal Culture
Primary neuronal cultures were prepared from the cerebral cortex of embryonic day 18 Wistar rats (Charles River Japan, Yokohama, Japan). Specifically, the embryos were aseptically removed from pregnant rats under ether anesthesia. The brain was isolated from the embryo and immersed in an ice-cold L-15 medium (Invitrogen Corp. Cat #11415-064, Carlsbad, Calif., USA, or SIGMA L1518, for example). The cerebral cortex was collected from the isolated brain under a stereoscopic microscope. The cerebral cortex fragments collected were enzymatically treated in an enzyme solution containing 0.25% trypsin (Invitrogen Corp. Cat #15050-065, Carlsbad, Calif., USA) and 0.01% DNase (Sigma D5025, St. Louis, Mo., USA) at 37° C. for 30 minutes to disperse the cells. Here, the enzymatic reaction was stopped by adding inactivated horse serum to the solution. The enzymatically treated solution was centrifuged at 1,500 rpm for five minutes to remove the supernatant 5 to 10 ml of a medium was added to the resulting cell mass. Neurobasal medium (Invitrogen Corp. Cat #21103-049, Carlsbad, Calif., USA) supplemented with 2% B27 supplement (Invitrogen Corp. Cat #17504-044, Carlsbad, Calif., USA), 25 μM 2-mercaptoethanol (2-ME, WAKO Cat #139-06861, Osaka, Japan), 0.5 mM L-glutamine (Invitrogen Corp. Cat #25030-081, Carlsbad, Calif., USA), and Antibiotics-Antimycotics (Invitrogen Corp. Cat #15240-062, Carlsbad, Calif., USA) was used as the medium (Neurobasal/B27/2-ME). However, the above Neurobasal medium not supplemented with 2-ME (Neurobasal/B27) was used for the assay. The cells were redispersed by mild pipetting of the cell mass to which the medium was added. The cell dispersion was filtered through a 40-μm nylon mesh (Cell Strainer, Cat #35-2340, Becton Dickinson Labware, Franklin Lakes, N.J., USA) to remove the remaining cell mass, and thus a neuronal cell suspension was obtained. The neuronal cell suspension was diluted with the medium and then plated in a volume of 100 μl/well at an initial cell density of 5×10^5 cells/cm^2 in a 96-well polystyrene culture plate pre-coated with poly-L or D-lysine (Falcon Cat #35-3075, Becton Dickinson Labware, Franklin Lakes, N.J., USA coated with poly-L-lysine using the method shown below, or BIOCOAT™ cell environments Poly-D-lysine cell ware 96-well plate, Cat #35-6461, Becton Dickinson Labware, Franklin Lakes, N.J., USA). Poly-L-lysine coating was carried out as follows. 100 μg/ml of a poly-L-lysine (SIGMA P2636, St. Louis, Mo., USA) solution was aseptically prepared with a 0.15 M borate buffer (pH 8.5). […] Thereafter, the coated 96-well polystyrene culture plate was washed with sterile water four or more times, and then dried or rinsed with sterile PBS or medium, and used for cell plating. The plated cells were cultured in the culture plate at 37° C. in 5% CO2-95% air for one day. Then, the total amount of the medium was replaced with a fresh Neurobasal/B27/2-ME medium, and then the cells were cultured for further three days.
The drug was added to the culture plate on Day 4 of culture as follows. The total amount of the medium was removed from the wells, and 180 μl/well of Neurobasal medium not containing 2-ME and containing 2% B-27 (Neurobasal/B27) was added thereto. A solution of the test compound in dimethyl sulfoxide (hereinafter abbreviated as DMSO) was diluted with Neurobasal/B27 to a concentration 10-fold higher than the final concentration. 20 μl/well of the dilution was added to and sufficiently mixed with the medium. The final DMSO concentration was 1% or less. Only DMSO was added to the control group.
The cells were cultured for three days after addition of the compound, and the total amount of the medium was collected. The resulting medium was used as an ELISA sample. […]

Structure (SMILES)	IC50 [nM]
COc1nc(-c2cn3c(n2)C(c2ccccc2C(F)(F)F)CCC3)ccc1-n1cnc(C)c1 (single isomer, unassigned) [Example 102, (−)-2-[6-methoxy-5-(4-methylimidazol-1-yl)pyridin-2-yl]-8-(2-trifluoromethylphenyl)-5,6,7,8-tetrahydroimidazo[1,2-a]pyridine]	55
COc1nc(-c2cn3c(n2)[C@H](c2ccccc2C(F)(F)F)CC3)ccc1-n1cnc(C)c1 (single isomer, unassigned) [Example 104, (−)-2-[6-methoxy-5-(4-methylimidazol-1-yl)pyridin-2-yl]-7-(2-trifluoromethylphenyl)-6,7-dihydro-5H-pyrrolo[1,2-a]imidazole]	91
COc1nc(-c2cn3c(n2)[C@H](c2ccc(Cl)cc2C(F)(F)F)CCC3)ccc1-n1cnc(C)c1 (single isomer, unassigned) [Example 108, (−)-8-(4-chloro-2-trifluoromethylphenyl)-2-[6-methoxy-5-(4-methylimidazol-1-yl)pyridin-2-yl]-5,6,7,8-tetrahydroimidazo[1,2-a]pyridine]	18
COc1cc(C)c(C2CCCn3nc(-c4ccc(-n5cnc(C)c5)c(OC)n4)nc32)cc1C(C)C (single isomer, unassigned; (-)) [Example 2, (−)-8-(5-isopropyl-4-methoxy-2-methylphenyl)-2-[6-methoxy-5-(4-methylimidazol-1-yl)pyridin-2-yl]-5,6,7,8-tetrahydro[1,2,4]triazolo[1,5-a]pyridine]	10
COc1nc(-c2nc3n(n2)CCC[C@@H]3c2cc(-c3ccc(C(F)(F)F)cn3)ccc2Cl)ccc1-n1cnc(C)c1 (stereo in doubt) [Example 361, (−)-8-[2-chloro-5-(5-trifluoromethylpyridine-2-yl)phenyl]-2-[6-methoxy-5-(4-methyl-1H-imidazole-1-yl)pyridine-2-yl]-5,6,7,8-tetrahydro[1,2,4]triazolo[1,5-a]pyridine]	13
COc1nc(-c2cn3c(n2)[C@H](c2ccc(Br)cc2C(F)(F)F)CCC3)ccc1-n1cnc(C)c1 [Example 100, (−)-8-(4-bromo-2-trifluoromethylphenyl)-2-[6-methoxy-5-(4-methylimidazol-1-yl)pyridin-2-yl]-5,6,7,8-tetrahydroimidazo[1,2-a]pyridine]	9
COc1cc([C@@H]2CCCn3nc(-c4ccc(-n5cnc(C)c5)c(OC)n4)nc32)cc(C(C)(C)C)c1 [Example 187]	11
COc1cc([C@@H]2CCCn3nc(-c4ccc(-n5cnc(C)c5)c(OC)n4)nc32)ccc1C(C)(C)C [Example 191]	7
COc1nc(-c2nc3n(n2)CCC[C@H]3c2cccc(C(C)(C)C)c2)ccc1-n1cnc(C)c1 [Example 193]	13
COc1nc(-c2nc3n(n2)CCC[C@H]3c2cc(C(C)(C)C)ccc2F)ccc1-n1cnc(C)c1 [Example 197]	13
COc1nc(-c2nc3n(n2)CCC[C@H]3c2cc(C(C)(C)C)ccc2Br)ccc1-n1cnc(C)c1 [Example 199]	6
COc1nc(-c2nc3n(n2)CCC[C@H]3c2cc(C(C)(C)C)c(F)cc2F)ccc1-n1cnc(C)c1 [Example 211]	15
COc1nc(-c2nc3n(n2)CCC[C@H]3c2cc(C(C)(C)C#N)c(Cl)cc2Cl)ccc1-n1cnc(C)c1 [Example 225]	28
COc1nc(-c2cn3c(n2)[C@H](c2cccc(C(C)(C)C)c2OC)CCC3)ccc1-n1cnc(C)c1 [Example 239]	12
COc1cc([C@@H]2CCCn3cc(-c4ccc(-n5cnc(C)c5)c(OC)n4)nc32)ccc1C(C)(C)C [Example 240]	5
COc1nc(-c2cn3c(n2)[C@H](c2ccc(C(C)(C)C)cc2)CCC3)ccc1-n1cnc(C)c1 [Example 242]	9
COc1nc(-c2cn3c(n2)[C@H](c2cc(C(C)(C)C#N)ccc2Cl)CCC3)ccc1-n1cnc(C)c1 [Example 245]	16
COc1nc(-c2cn3c(n2)[C@H](c2ccc(C(C)(C)C#N)cc2Cl)CCC3)ccc1-n1cnc(C)c1 [Example 246]	55

Structure (SMILES)	IC50 [nM]
COc1nc(-c2cn3c(n2)[C@H](c2cc(Br)ccc2C(F)(F)F)CCC3)ccc1-n1cnc(C)c1 [Example 250]	13
COc1nc(-c2nc3n(n2)CCC[C@@H]3c2cc(C(C)(C)OC)ccc2Cl)ccc1-n1cnc(C)c1 [Example 267, (−)-2-[6-methoxy-5-(4-methyl-1H-imidazol-1-yl)pyridin-2-yl]-8-(2-chloro-5-(1-methoxy-1-methylethyl)phenyl)-5,6,7,8-tetrahydro[1,2,4]triazolo[1,5-a]pyridine]	29
COc1nc(-c2nc3n(n2)CCC[C@H]3c2cc(N3CCCCC3)ccc2Br)ccc1-n1cnc(C)c1 [Example 279]	8
COc1nc(-c2nc3n(n2)CCC[C@H]3c2ccc(Cl)c(N3CCCCC3)c2)ccc1-n1cnc(C)c1 [Example 287]	22
COc1nc(-c2nc3n(n2)CCC[C@H]3c2ccc(N3CCCCC3)cc2Cl)ccc1-n1cnc(C)c1 [Example 295]	33
COc1nc(-c2nc3n(n2)CCC[C@H]3c2ccc(N(CC3CC3)CC(F)(F)F)cc2Cl)ccc1-n1cnc(C)c1 [Example 307]	13
COc1nc(-c2nc3n(n2)CCC[C@H]3c2ccc(N(CC(F)(F)F)C3CC3)cc2Cl)ccc1-n1cnc(C)c1 [Example 309]	14
COc1nc(-c2nc3n(n2)CCC[C@H]3c2cc(N3CCC(C)CC3)ccc2Cl)ccc1-n1cnc(C)c1 [Example 311]	12
COc1nc(-c2nc3n(n2)CCC[C@H]3c2cc(N(CC3CC3)CC(F)(F)F)ccc2Cl)ccc1-n1cnc(C)c1 [Example 313]	6
COc1nc(-c2nc3n(n2)CCC[C@H]3c2cc(N(CC3CC3)CC3CC3)ccc2Cl)ccc1-n1cnc(C)c1 [Example 315]	4
COc1nc(-c2nc3n(n2)CCC[C@H]3c2cc(N3CCC(C(F)(F)F)CC3)ccc2Cl)ccc1-n1cnc(C)c1 [Example 317]	15
COc1nc(-c2nc3n(n2)CCC[C@H]3c2cc(N3CC(C)CC(C)C3)ccc2Cl)ccc1-n1cnc(C)c1 (stereo partly shown) [Example 319]	10
COc1ccc(C(C)(C)C(F)(F)F)cc1[C@@H]1CCCn2nc(-c3ccc(-n4cnc(C)c4)c(OC)n3)nc21 [Example 331]	12
COc1nc(-c2nc3n(n2)CCC[C@H]3c2ccc3c(c2)C(C)(C)CN3CC(F)(F)F)ccc1-n1cnc(C)c1 [Example 337]	13
COc1nc(-c2nc3n(n2)CCC[C@H]3c2cc(N3CCCC3)ccc2Cl)ccc1-n1cnc(C)c1 [Example 347]	30
COc1nc(-c2nc3n(n2)CCC[C@H]3c2cc(-c3ccccc3)ccc2Cl)ccc1-n1cnc(C)c1 [Example 359]	16
COc1nc(-c2nc3n(n2)CCC[C@H]3c2ccc(N3CCCCCC3)cc2)ccc1-n1cnc(C)c1 [Example 383]	21

Same assay, conditions: primary neuronal culture from cerebral cortex of embryonic day 18 Wistar rats; cultured three days after addition of compound; Aβ42 in medium by ELISA; read-out: Aβ42 Production reducing action IC50

Structure (SMILES)	IC50 [nM]
COc1nc(-c2nc3n(n2)CCC[C@H]3c2ccc(Br)cc2C(F)(F)F)ccc1-n1cnc(C)c1 [Example 42, −8-4-bromo-2-trifluoromethylphenyl-2-[6-methoxy-5-(4-methylimidazol-1-yl)pyridin-2-yl]-5,6,7,8-tetrahydro[1,2,4]triazolo[1,5-a]pyridine]	52
COc1ccc([C@@H]2CCCn3nc(-c4ccc(-n5cnc(C)c5)c(OC)n4)nc32)cc1C(C)(C)C [Example 59]	7
